“And” between values parts separate entries of the source, which are not always exact repeats. Equal values may be shown once.
Assays:
[1] = tested on: T4 Arabidopsis homozygous for AAD1 (v3) (line AAD1.01.315.076); test: Foliar-applied auxinic herbicides on homozygous T4 AAD1 (v3) Arabidopsis, % injury 14 DAT; type: in vivo, Arabidopsis thaliana; settings: AAD1.01.315.076.T4 homozygous AAD1 plants
Method in brief: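 Homozygous T4 AAD1 (v3) Arabidopsis (line AAD1.01.315.076) and a PAT/Cry1F transformed control were grown in pots and track-sprayed foliarly at 187 L/ha with herbicides formulated in 200 mM Hepes pH 7.5. Injury was rated 14 days after treatment, with 3-4 replicates averaged over two experiments.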

[2] = tested on: AAD1 (v2)-transformed T1 Arabidopsis; test: T1 Arabidopsis response to postemergence herbicide, % visual injury 2 WAT: native AAD1 (v2) transformants; type: in vivo, Arabidopsis thaliana; settings: for % Injury Ave / individuals with 20-40% injury / individuals with <20% injury / individuals with >40% injury: Native AAD1 (v2) gene, 2 WAT
Experimental: Freshly harvested T1 seed (transformed with native [AAD1 (v2)] or plant optimized [AAD1 (v3)] gene) was allowed to dry for 7 days at room temperature. T1 seed was sown in 26.5×51-cm germination trays (T.O. Plastics Inc., Clearwater, Minn.), each receiving a 200 mg aliquots of stratified T1 seed (˜10,000 seed) that had previously been suspended in 40 ml of 0.1% agarose solution and stored at 4° C. for 2 days to complete dormancy requirements and ensure synchronous seed germination.
Sunshine Mix LP5 (Sun Gro Horticulture Inc., Bellevue, Wash.) was covered with fine vermiculite and subirrigated with Hoagland's solution until wet, then allowed to gravity drain. Each 40 ml aliquot of stratified seed was sown evenly onto the vermiculite with a pipette and covered with humidity domes (KORD Products, Bramalea, Ontario, Canada) for 4-5 days. Domes were removed 1 day prior to initial transformant selection using glufosinate postemergence spray (selecting for the co-transformed PAT gene).
Five to six days after planting (DAP) and again 10 DAP, T1 plants (cotyledon and 2-4-1f stage, respectively) were sprayed with a 0.2% solution of Liberty herbicide (200 g ai/L glufosinate, Bayer Crop Sciences, Kansas City, Mo.) at a spray volume of 10 ml/tray (703 L/ha) using a DeVilbiss compressed air spray tip to deliver an effective rate of 280 g ai/ha glufosinate per application. Survivors (plants actively growing) were identified 5-7 days after the final spraying and transplanted individually into 3-inch pots prepared with potting media (Metro Mix 360). Transplanted plants were covered with humidity domes for 3-4 days and placed in a 22° C. growth chamber as before. Domes were subsequently removed and plants moved to the greenhouse (22+5° C., 50+30% RH, 14 h light:10 dark, minimum 500 μE/m^2s^1 natural+supplemental light) at least 1 day prior to testing for the ability of AAD1 (v3) (plant optimized gene) or AAD1 (v2) (native microbial gene) to provide phenoxy auxin herbicide resistance.
Random individual T1 plants selected for glufosinate resistance above were confirmed for expression of the PAT protein using a PAT ELISA kit (Part no. 7000045, Strategic Diagnostics, Inc., Newark, Del.) to non-destructively confirm fidelity of selection process (manufacturer's protocol). Plants were then randomly assigned to various rates of phenoxy herbicides (dichlorprop or 2,4-D). […] Elevated rates were applied in subsequent trials (50, 200, 800, or 3200 g ae/ha).
All auxin herbicide applications were made using the DeVilbiss sprayer as described above to apply 703 L/ha spray volume (0.4 ml solution/3-inch pot) or applied by track sprayer in a 187 L/ha spray volume. […] Dichlorprop used was technical grade (Sigma, St. Louis, Mo.) dissolved in DMSO and diluted in water (<1% DMSO final concentration). As herbicide rates increased beyond 800 g ae/ha, the pH of the spray solution became exceedingly acidic, burning the leaves of young, tender Arabidopsis plants and complicating evaluation of the primary effects of the herbicides. It became standard practice to apply these high rates of phenoxy herbicides in 200 mM Tris buffer (pH 9.0) to a final pH of ˜7-8.
Table 16. […] Response is presented in terms of % visual injury 2 WAT. […] Since each T1 is an independent transformation event, one can expect significant variation of individual T1 responses within a given rate. An arithmetic mean and standard deviation is presented for each treatment. The range in individual response is also indicated in the last column for each rate and transformation. PAT/Cry1F-transformed Arabidopsis served as an auxin-sensitive transformed control. Wildtype Arabidopsis is untransformed.

Compound | Ave % Injury 14DAT ([1]; 50 g ae/ha foliar) | Ave % Injury 14DAT ([1]; 200 g ae/ha foliar) | Ave % Injury 14DAT ([1]; 800 g ae/ha foliar) | Ave % Injury 14DAT ([1]; 3200 g ae/ha foliar) | T1 plants surviving uninjured (<20% visual injury) ([2]; AAD1 (v2), 200 g ae/ha) | % Injury Ave ([2]; 50 g ae/ha) | individuals with 20-40% injury ([2]; 50 g ae/ha) | individuals with <20% injury ([2]; 50 g ae/ha) | individuals with >40% injury ([2]; 50 g ae/ha) | % Injury Ave ([2]; 200 g ae/ha) | individuals with 20-40% injury ([2]; 200 g ae/ha) | individuals with <20% injury ([2]; 200 g ae/ha) | individuals with >40% injury ([2]; 200 g ae/ha) | % Injury Ave ([2]; 800 g ae/ha) | individuals with 20-40% injury ([2]; 800 g ae/ha) | individuals with <20% injury ([2]; 800 g ae/ha) | individuals with >40% injury ([2]; 800 g ae/ha)
Nc1c(Cl)c(F)nc(OCC(=O)O)c1Cl [Fluroxypyr] | 48% | 75% | 88% | 95% | – | – | – | – | – | – | – | – | – | – | – | – | –
O=C(O)COc1ccc(Cl)cc1Cl [2,4-D, 2,4-dichlorophenoxyacetic acid] | – | – | – | – | 56% | 14.8% | 16 | 55 | 9 | 34% and 34.1% | 11 | 45 | 24 | 52.5% | 32 | 11 | 37
